From the kinase profiling compilation of Christmann-Franck et al. (2016) come the findings set out here.

SMILES strings stand for the structures.

Common to all, as to assay: KINOMEscan competition binding
Common to all, as to conditions: compound 10.0 µM

The subject of test [1] is FLT3 (human), P36888 [N841I].
The test system of test [2] is FLT3 (human), P36888 [ITD].
Test [3] concerns PIK3CA (human), P42336 [Q546K].
Test [4] relates to ABL1 (human), P00519 [T315I].
In test [5] the test system is EIF2AK4 KD2 (human), Q9P2K8 [S808G].
Chain of EIF2AK4 KD2 (human), Q9P2K8 [S808G] (Q9P2K8 whole entry S808G, looked up): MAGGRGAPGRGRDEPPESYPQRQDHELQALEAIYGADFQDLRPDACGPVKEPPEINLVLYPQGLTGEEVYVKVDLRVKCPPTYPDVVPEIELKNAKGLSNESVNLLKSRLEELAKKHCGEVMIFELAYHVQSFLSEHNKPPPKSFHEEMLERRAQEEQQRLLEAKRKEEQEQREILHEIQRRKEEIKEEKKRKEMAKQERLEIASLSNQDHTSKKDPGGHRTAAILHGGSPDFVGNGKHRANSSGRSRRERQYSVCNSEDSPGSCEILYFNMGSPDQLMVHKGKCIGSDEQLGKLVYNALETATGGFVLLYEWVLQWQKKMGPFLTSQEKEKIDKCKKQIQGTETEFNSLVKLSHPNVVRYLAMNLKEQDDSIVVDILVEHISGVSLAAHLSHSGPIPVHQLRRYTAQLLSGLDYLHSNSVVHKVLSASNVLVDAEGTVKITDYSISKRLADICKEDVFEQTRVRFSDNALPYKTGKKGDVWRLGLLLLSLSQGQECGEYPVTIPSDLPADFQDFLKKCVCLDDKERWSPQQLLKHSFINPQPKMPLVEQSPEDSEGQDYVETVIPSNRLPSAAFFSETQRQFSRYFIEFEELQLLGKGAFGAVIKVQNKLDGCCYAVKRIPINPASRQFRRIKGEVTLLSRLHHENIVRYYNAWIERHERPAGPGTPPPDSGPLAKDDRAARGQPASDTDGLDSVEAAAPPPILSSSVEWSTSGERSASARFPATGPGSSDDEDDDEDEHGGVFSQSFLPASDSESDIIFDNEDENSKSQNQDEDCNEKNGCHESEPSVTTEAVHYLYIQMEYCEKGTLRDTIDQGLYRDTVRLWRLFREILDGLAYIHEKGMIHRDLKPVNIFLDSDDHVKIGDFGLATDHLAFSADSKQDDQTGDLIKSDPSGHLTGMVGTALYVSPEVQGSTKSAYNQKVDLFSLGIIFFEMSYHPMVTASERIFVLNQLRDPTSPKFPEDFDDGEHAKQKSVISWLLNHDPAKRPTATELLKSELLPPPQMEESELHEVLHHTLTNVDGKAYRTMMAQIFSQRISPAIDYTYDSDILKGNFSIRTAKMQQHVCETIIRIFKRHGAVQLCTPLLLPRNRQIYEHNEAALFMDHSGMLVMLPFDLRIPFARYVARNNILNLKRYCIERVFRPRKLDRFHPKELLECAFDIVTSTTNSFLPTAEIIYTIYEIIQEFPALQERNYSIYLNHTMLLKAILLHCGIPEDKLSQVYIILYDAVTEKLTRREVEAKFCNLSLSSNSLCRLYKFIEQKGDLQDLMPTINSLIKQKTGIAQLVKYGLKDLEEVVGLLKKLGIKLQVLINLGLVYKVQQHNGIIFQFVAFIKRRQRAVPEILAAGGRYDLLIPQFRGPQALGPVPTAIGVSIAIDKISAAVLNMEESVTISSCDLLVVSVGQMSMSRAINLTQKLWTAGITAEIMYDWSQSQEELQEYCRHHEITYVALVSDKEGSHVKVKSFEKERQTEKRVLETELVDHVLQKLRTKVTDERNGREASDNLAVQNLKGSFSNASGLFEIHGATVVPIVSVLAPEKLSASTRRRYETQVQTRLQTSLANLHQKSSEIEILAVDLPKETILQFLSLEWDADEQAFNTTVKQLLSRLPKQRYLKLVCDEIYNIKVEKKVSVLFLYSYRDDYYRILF
Test [6] relates to PIK3CA (human), P42336 [E545A].
Chain of PIK3CA (human), P42336 [E545A] (P42336 whole entry E545A, looked up): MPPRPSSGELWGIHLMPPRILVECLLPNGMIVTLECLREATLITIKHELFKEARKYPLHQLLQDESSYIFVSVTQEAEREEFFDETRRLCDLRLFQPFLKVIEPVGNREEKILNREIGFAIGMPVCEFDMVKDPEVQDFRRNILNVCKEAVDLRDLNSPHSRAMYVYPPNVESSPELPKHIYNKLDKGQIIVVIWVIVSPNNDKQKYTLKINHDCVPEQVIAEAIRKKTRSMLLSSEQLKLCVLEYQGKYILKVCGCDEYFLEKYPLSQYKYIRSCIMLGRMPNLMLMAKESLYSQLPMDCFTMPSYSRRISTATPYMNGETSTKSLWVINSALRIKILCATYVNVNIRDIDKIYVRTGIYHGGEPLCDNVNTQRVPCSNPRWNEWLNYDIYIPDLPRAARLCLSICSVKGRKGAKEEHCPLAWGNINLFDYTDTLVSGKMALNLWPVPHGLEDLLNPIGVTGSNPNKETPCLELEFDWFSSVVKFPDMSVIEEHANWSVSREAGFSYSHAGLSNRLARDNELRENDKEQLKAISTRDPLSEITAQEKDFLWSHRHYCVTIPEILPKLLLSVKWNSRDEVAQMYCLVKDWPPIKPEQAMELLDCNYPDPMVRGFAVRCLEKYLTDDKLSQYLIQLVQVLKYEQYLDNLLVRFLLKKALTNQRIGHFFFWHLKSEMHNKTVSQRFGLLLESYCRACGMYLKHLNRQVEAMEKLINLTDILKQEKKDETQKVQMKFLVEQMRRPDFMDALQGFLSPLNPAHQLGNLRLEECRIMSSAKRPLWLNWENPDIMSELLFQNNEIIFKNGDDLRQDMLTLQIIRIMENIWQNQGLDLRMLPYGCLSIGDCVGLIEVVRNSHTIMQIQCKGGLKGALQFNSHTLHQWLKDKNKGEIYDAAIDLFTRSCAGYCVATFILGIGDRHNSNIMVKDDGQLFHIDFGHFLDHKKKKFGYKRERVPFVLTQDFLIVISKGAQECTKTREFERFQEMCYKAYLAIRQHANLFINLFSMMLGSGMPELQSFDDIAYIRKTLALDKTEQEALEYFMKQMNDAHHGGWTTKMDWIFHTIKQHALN
The test system of test [7] is ABL1 (human), P00519 [Q252H].
Test [8] relates to EGFR (human), P00533 [746-750 del].
The subject of test [9] is EGFR (human), P00533 [L861Q].
Test [10] concerns FLT3 (human), P36888 [K663Q].
Test [11] deals with KIT (human), P10721 [D816V].
Chain of KIT (human), P10721 [D816V] (P10721 whole entry D816V, looked up): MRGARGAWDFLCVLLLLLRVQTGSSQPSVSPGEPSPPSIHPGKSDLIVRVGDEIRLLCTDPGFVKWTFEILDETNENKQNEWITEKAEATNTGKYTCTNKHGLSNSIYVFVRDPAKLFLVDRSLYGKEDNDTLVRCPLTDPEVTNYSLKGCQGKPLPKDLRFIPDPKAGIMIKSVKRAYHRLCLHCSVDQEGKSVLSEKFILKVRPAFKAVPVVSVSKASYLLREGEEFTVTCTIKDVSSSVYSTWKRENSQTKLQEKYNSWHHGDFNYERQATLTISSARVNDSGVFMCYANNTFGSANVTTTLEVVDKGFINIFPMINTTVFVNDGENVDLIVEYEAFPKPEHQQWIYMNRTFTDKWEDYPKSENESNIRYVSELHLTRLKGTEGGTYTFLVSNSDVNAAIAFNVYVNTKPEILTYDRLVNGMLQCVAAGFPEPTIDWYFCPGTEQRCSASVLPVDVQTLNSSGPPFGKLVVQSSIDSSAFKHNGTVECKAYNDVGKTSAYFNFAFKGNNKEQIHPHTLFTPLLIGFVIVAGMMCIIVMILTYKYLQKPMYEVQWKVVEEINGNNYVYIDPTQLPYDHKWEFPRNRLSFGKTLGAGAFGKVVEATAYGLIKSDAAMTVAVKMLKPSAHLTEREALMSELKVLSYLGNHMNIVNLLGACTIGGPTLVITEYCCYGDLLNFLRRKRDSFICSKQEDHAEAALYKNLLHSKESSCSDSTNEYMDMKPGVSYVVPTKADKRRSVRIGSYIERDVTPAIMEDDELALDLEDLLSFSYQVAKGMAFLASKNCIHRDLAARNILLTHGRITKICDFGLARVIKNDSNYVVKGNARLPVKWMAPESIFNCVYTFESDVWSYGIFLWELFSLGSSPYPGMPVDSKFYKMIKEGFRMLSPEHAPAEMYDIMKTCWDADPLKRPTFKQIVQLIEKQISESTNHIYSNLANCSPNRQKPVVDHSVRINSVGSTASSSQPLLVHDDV
Test [12] relates to PIK3CA (human), P42336 [E545K].
Chain of PIK3CA (human), P42336 [E545K] (P42336 whole entry E545K, looked up): as the sequence (P42336 whole entry E545A, looked up) above, with A545K counted along it
Test [13] relates to EGFR (human), P00533 [G719S].
The subject of test [14] is ABL1 (human), P00519 [E255K].
Test [15] deals with PIK3CA (human), P42336 [C420R].
Chain of PIK3CA (human), P42336 [C420R] (P42336 whole entry C420R, looked up): as the sequence (P42336 whole entry E545A, looked up) above, with C420R, A545E counted along it
Test [16] concerns KIT (human), P10721 [V559D/T670I].
Chain of KIT (human), P10721 [V559D/T670I] (P10721 whole entry V559D/T670I, looked up): as the sequence (P10721 whole entry D816V, looked up) above, with V559D, T670I, V816D counted along it
Test [17] relates to KIT (human), P10721 [V559D].
Chain of KIT (human), P10721 [V559D] (P10721 whole entry V559D, looked up): as the sequence (P10721 whole entry D816V, looked up) above, with V559D, V816D counted along it
Test [18] relates to EGFR (human), P00533 [P753S; 747-752 del].
Test [19] concerns ABL1 (human), P00519 [M351T].
In test [20] the test system is PIK3CA (human), P42336 [H1047Y].
Chain of PIK3CA (human), P42336 [H1047Y] (P42336 whole entry H1047Y, looked up): as the sequence (P42336 whole entry E545A, looked up) above, with A545E, H1047Y counted along it

Chain of PIK3CA (human), P42336 [Q546K] (P42336 whole entry Q546K, looked up): as the sequence (P42336 whole entry E545A, looked up) above, with A545E, Q546K counted along it

Take `CCOc1cc(N2CCC(O)CC2)ccc1Nc1ncc2c(n1)N(C)c1ccccc1C(=O)N2C`: the kinase still bound, per cent of control in test [1], in test [2], in test [3], in test [4], in [5] and in test [6] was 100% in each case. The kinase still bound, per cent of control in test [7], in test [8], in test [9], in test [10], in [11] and in test [12] was 100% in each case. In addition, the kinase still bound, per cent of control in [13], in test [14], in [15], in [16], in test [17] and in test [18] was 100% each time. Moreover, the kinase still bound, per cent of control in test [19] and in [20] was 100% in each case.
Turning to `Cc1cn(-c2cc(C(=O)Nc3ccc(C)c(NC(=O)c4ccno4)c3)cc(C(F)(F)F)c2)cn1`, the kinase still bound, per cent of control in test [1], in test [2], in [3], in test [4], in [5] and in test [6] was 100% each time. Further, the kinase still bound, per cent of control was found to be 13% in [7]; 100% in [8]; 100% in test [9]; 100% in test [10]; 27% in test [11]; 100% in test [12]. The kinase still bound, per cent of control came out at 100% in [13]; 18% in test [14]; 100% in test [15]; 100% in test [16]; 0.15% in test [17]; 100% in [18]. In addition, the kinase still bound, per cent of control turned out to be 11% in test [19] and 100% in test [20].
In the case of `CCN(CC)CCCCNc1ncc2c(n1)N(C)C(=O)N(c1c(Cl)c(OC)cc(OC)c1Cl)C2`, the kinase still bound, per cent of control was 100% in test [1]; 100% in [2]; 100% in test [3]; 100% in test [4]; 9.5% in test [5]; 100% in test [6]. Also, the kinase still bound, per cent of control in [7], in test [8], in [9], in test [10], in test [11] and in test [12] was 100% in each case. Besides, the kinase still bound, per cent of control in test [13] was 100%; in test [14] it was 100%; in [15] it was 100%; in test [16], 100%; in test [17], 6.1%; in test [18] it was 100%. Besides, the kinase still bound, per cent of control in [19] and in test [20] was 100% each time.
In the case of `COc1cc(C)c(Sc2cnc(NC(=O)c3ccc(CNC(C)C(C)C)cc3)s2)cc1C(=O)N1CCN(C(C)=O)CC1` (stereo unspecified), the kinase still bound, per cent of control in test [1] was 16%; in [2], 100%; in test [4] it was 19%; in test [5] it was 100%; in test [7], 100%; in test [8], 100%. Also, the kinase still bound, per cent of control in test [9], in [10], in test [11], in [12], in test [13] and in [14] was 100% each time. For the same compound, the kinase still bound, per cent of control in test [16], in test [17], in test [18] and in test [19] was 100% each time.
With `C=CC(=O)Nc1ccc(CN(C(=O)Nc2c(Cl)c(OC)cc(OC)c2Cl)c2cc(Nc3ccc(N4CCN(C)CC4)cc3)ncn2)cc1`, the kinase still bound, per cent of control stood at 8.4% in test [1]; 100% in [2]; 6.4% in test [4]; 1.5% in test [5]; 14% in [7]; 0.6% in test [8]. Besides, the kinase still bound, per cent of control was 0.1% in [9]; 21% in test [10]; 7.2% in test [11]; 100% in test [12]; 0.15% in test [13]; 100% in test [14]. For the same compound, the kinase still bound, per cent of control in test [16] stood at 29%; in test [17], 0.1%; in [18], 0.45%; in test [19], 16%.
Turning to `CS(=O)(=O)N1CCN(Cc2cc3nc(-c4cccc5[nH]ncc45)nc(N4CCOCC4)c3s2)CC1`, the kinase still bound, per cent of control was determined as 100% in [1]; 100% in test [2]; 0.35% in test [3]; 100% in test [4]; 100% in test [5]; 0.35% in test [6]. Also, the kinase still bound, per cent of control in [7] is 100%; in test [8], 100%; in test [9] it was 100%; in [10], 100%; in test [11] it was 100%; in test [12] it was 0.3%. Besides, the kinase still bound, per cent of control in test [13], in [14], in test [16], in test [17], in test [18] and in test [19] was 100% in each case. The same compound gave a kinase still bound, per cent of control in [20] of 14%.
Take `COc1cc(N2CCN(C)CC2)ccc1Nc1ncc2c(n1)N(C)c1ccccc1C(=O)N2C`: the kinase still bound, per cent of control in [1], in test [2], in test [3], in test [4], in test [5] and in test [6] was 100% each time. Also, the kinase still bound, per cent of control in [7], in [8], in test [9], in test [10], in test [11] and in test [12] was 100% in each case. The kinase still bound, per cent of control in [13], in test [14], in [15], in test [16], in test [17] and in test [18] was 100% throughout. The kinase still bound, per cent of control in test [19] and in test [20] was 100% each time.
